Laboratory results published in patent US7034049B1, “3(5)-amino-pyrazole derivatives, process for their preparation and their use as antitumor agents” (Pharmacia Italia S.p.A., priority 1999, dated 2006).

melting point | Structure (SMILES)
173 to 174 °C | COC(=O)c1ccc(C(=O)Nc2cc(C3CC3)n[nH]2)cc1 [Compound 94, Methyl 4-{[(3-cyclopropyl-1H-pyrazol-5-yl)amino]carbonyl}benzoate]
238 to 239 °C | O=C(Nc1cc(C2CC2)n[nH]1)c1cc2ccccc2s1 [Compound 91, N-(3-cyclopropyl-1H-pyrazol-5-yl)-1-benzothiophene-2-carboxamide]
167 to 171 °C | CC(=O)Nc1cc(C2CC2)n[nH]1 [Compound 88, N-(3-cyclopropyl-1H-pyrazol-5-yl)acetamide]
268 to 269 °C | O=C(Nc1cc(C2CC2)n[nH]1)c1cc2ccccc2[nH]1 [Compound 102, N-(3-cyclopropyl-1H-pyrazol-5-yl)-1H-indole-2-carboxamide]
220 to 221 °C | O=C(Nc1cc(C2CC2)n[nH]1)c1ccc[nH]1 [Compound 248, N-(3-cyclopropyl-1H-pyrazol-5-yl)-1H-pyrrole-2-carboxamide]
152 to 160 °C | O=C(CCc1ccccc1)Nc1cc(C2CC2)n[nH]1 [Compound 93, N-(3-cyclopropyl-1H-pyrazol-5-yl)-3-phenylpropanamide]
